Results: patent US12552748B2, “Pyridine (thio)amides as fungicidal compounds” (Bayer Aktiengesellschaft, priority 2020, dated 2026)
Marks after values point to notes of the source that are not given here.

Experiments:
Botrytis cinerea = experiment: In vivo preventive test on Botrytis cinerea (grey mould); conditions: 500 ppm of active ingredient, preventive spray on gherkin or cabbage, evaluated 4 to 5 days after inoculation, 0% = control plants, 100% = no disease, read-out: efficacy
Protocol: (§1) B-2. In Vivo Preventive Test on Botrytis cinerea (Grey Mould [table] The active ingredients were made soluble and homogenized in a mixture of Dimethyl sulfoxide/Acetone/Tween® 80 and then diluted in water to the desired concentration. The young plants of gherkin or cabbage were treated by spraying the active ingredient prepared as described above. Control plants were treated only with an aqueous solution of Acetone/Dimethyl sulfoxide/Tween® 80. After 24 hours, the plants were contaminated by spraying the leaves with an aqueous suspension of Botrytis cinerea spores.

Sphaerotheca fuliginea = experiment: In vivo preventive test on Sphaerotheca fuliginea (powdery mildew on cucurbits); conditions: Podosphaera fuliginea, 192 h; 500 ppm of active ingredient; preventive spray on gherkin; evaluated 8 days after inoculation; 0% = control plants, 100% = no disease; read-out: efficacy
Protocol: as §1, with “B-4.” for “B-2.”, “Sphaerotheca fuliginea (Powdery Mildew on Cucurbits” for “Botrytis cinerea (Grey Mould”, “gherkin” for “gherkin or cabbage”, “Sphaerotheca fuliginea” for “Botrytis cinerea”

physchem = format: physicochemical
How it was run: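 Reversed-phase HPLC per EEC directive 79/831 Annex V.A8, calibrated with straight-chain alkan-2-ones (C3–C16) of known Log P via linear interpolation of retention times. Lambda-max from UV spectra 200–400 nm at chromatographic peaks.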

Alternaria alternata = Alternaria alternata in vitro cell test; format: cell-based; conditions: 120 h, 20 ppm of active ingredient, liquid culture with spores, 5 days incubation, spectrometric measurement of mycelium growth, read-out: efficacy (inhibition of fungal growth)
Protocol: (§2) B-6. Alternaria alternata In Vitro Cell Test • Solvent: DMSO • Culture medium: 14.6 g anhydrous D-glucose (VWR), 7.1 g Mycological Peptone (Oxoid), 1.4 g granulated Yeast Extract (Merck), QSP 1 liter • Inoculum: spores suspension Fungicides were solubilized in DMSO and the solution used to prepare the required range of concentrations. […] A spore suspension of A. alternata was prepared and diluted to the desired spore density. Fungicides were evaluated for their ability to inhibit spore germination and mycelium growth in liquid culture assay. The compounds were added in the desired concentration to the culture medium with spores. After 5 days incubation, fungi-toxicity of compounds was determined by spectrometric measurement of mycelium growth. Inhibition of fungal growth was determined by comparing the absorbance values in wells containing the fungicides with the absorbance in control wells without fungicides.

[1] = tested on: Colletotrichum lindemuthianum; experiment: Colletotrichum lindemuthianum in vitro cell test; format: cell-based; conditions: 144 h, read-out: efficacy (inhibition of fungal growth)
Protocol: B-8. Colletotrichum lindemuthianum In Vitro Cell Test
• Solvent: DMSO • Culture medium: 14.6 g anhydrous D-glucose (VWR), 7.1 g Mycological Peptone (Oxoid), 1.4 g granulated Yeast Extract (Merck), QSP 1 liter • Inoculum: spores suspension
Fungicides were solubilized in DMSO and the solution used to prepare the required range of concentrations. The final concentration of DMSO used in the assay was ≤1%.
A spore suspension of C. lindemuthianum was prepared and diluted to the desired spore density.
Fungicides were evaluated for their ability to inhibit spores germination and mycelium growth in liquid culture assay. The compounds were added in the desired concentration to the culture medium with spores. After 6 days incubation, fungi-toxicity of compounds was determined by spectrometric measurement of mycelium growth. Inhibition of fungal growth was determined by comparing the absorbance values in wells containing the fungicides with the absorbance in control wells without fungicides.

Pyricularia oryzae = experiment: microbe, parasite or virus in culture; format: cell-based; conditions: 120 h, read-out: efficacy (inhibition of fungal growth)
Pyrenophora teres = Pyrenophora teres in vitro cell test; format: cell-based; conditions: 144 h, 20 ppm of active ingredient, liquid culture with spores, 6 days incubation, spectrometric measurement of mycelium growth, read-out: efficacy (inhibition of fungal growth)
Protocol: as §2, with “B-9. Pyrenophora Teres In” for “B-6. Alternaria alternata In”, “Inoculum: spore” for “Inoculum: spores”, “of P. teres” for “of A. alternata”, “After 6” for “After 5”

Cc1ccc(CCNC(=O)c2cc(Cl)nc(F)c2Oc2cccc(C(F)(F)F)c2)c(C)c1 [Compound I-018, 6-chloro-N-[2-(2,4-dimethylphenyl)ethyl]-2-fluoro-3-[3-(trifluoromethyl)phenoxy]pyridine-4-carboxamide]
pest or weed control at 500 ppm (Botrytis cinerea): 90 to 100% | pest or weed control at 500 ppm (Sphaerotheca fuliginea): 90 to 100% | chromatographic logP (physchem): 4.95

Cc1ccc(C(F)(F)CNC(=O)c2c(Oc3cccc(C(F)(F)F)c3)cnc(Cl)c2C)c(C)c1 [Compound I-019, 2-chloro-N-[2-(2,4-dimethylphenyl)-2,2-difluoro-ethyl]-3-methyl-5-[3-(trifluoromethyl)phenoxy]pyridine-4-carboxamide]
pest or weed control at 500 ppm (Botrytis cinerea): 90 to 100% | inhibition at 20 ppm (Alternaria alternata): 90 to 100% | inhibition at 20 ppm [1]: 90 to 100% | pest or weed control at 500 ppm (Sphaerotheca fuliginea): 90 to 100% | inhibition at 20 ppm (Pyricularia oryzae): 90 to 100% | chromatographic logP (physchem): 4.64

CCc1ccc(C(F)(F)CNC(=O)c2cc(Cl)ncc2Oc2cccc(C(F)(F)F)c2)c(Cl)c1 [Compound I-034, 2-chloro-N-[2-(2-chloro-4-ethyl-phenyl)-2,2-difluoro-ethyl]-5-[3-(trifluoromethyl)phenoxy]pyridine-4-carboxamide]
pest or weed control at 500 ppm (Botrytis cinerea): 90 to 100% | inhibition at 20 ppm (Alternaria alternata): 80 to 89% | pest or weed control at 500 ppm (Sphaerotheca fuliginea): 90 to 100% | chromatographic logP (physchem): 4.98

Cc1ccc(CCNC(=O)c2cc(NC3CC3)ncc2Oc2cccc(C(F)(F)F)c2)c(C)c1 [Compound I-050, 2-(cyclopropylamino)-N-[2-(2,4-dimethylphenyl)ethyl]-5-[3-(tri-fluoromethyl)phenoxy]pyridine-4-carboxamide]
pest or weed control at 500 ppm (Botrytis cinerea): 90 to 100% | inhibition at 20 ppm (Alternaria alternata): 90 to 100% | chromatographic logP (physchem): 3.77

Cc1ccc(C(F)(F)CNC(=O)c2c(Oc3cccc(C(F)(F)F)c3)cnc(Cl)c2I)c(C)c1 [Compound I-057, 2-chloro-N-[2-(2,4-dimethylphenyl)-2,2-difluoro-ethyl]-3-iodo-5-[3-(trifluoromethyl)phenoxy]pyridine-4-carboxamide]
pest or weed control at 500 ppm (Botrytis cinerea): 90 to 100% | inhibition at 20 ppm (Alternaria alternata): 90 to 100% | pest or weed control at 500 ppm (Sphaerotheca fuliginea): 90 to 100% | chromatographic logP (physchem): 4.8

CC(=O)c1cc(C(=O)NCCc2ccc(C)cc2C)c(Oc2cccc(C(F)(F)F)c2)cn1 [Compound I-087, 2-acetyl-N-[2-(2,4-dimethylphenyl)ethyl]-5-[3-(trifluoromethyl)phenoxy]pyridine-4-carboxamide]
pest or weed control at 500 ppm (Botrytis cinerea): 90 to 100% | inhibition at 20 ppm (Alternaria alternata): 90 to 100% | inhibition at 20 ppm [1]: 80 to 89% | pest or weed control at 500 ppm (Sphaerotheca fuliginea): 80 to 89% | inhibition at 20 ppm (Pyricularia oryzae): 80 to 89% | chromatographic logP (physchem): 4.47

Cc1ccc(CCNC(=S)c2cc(Cl)ncc2Oc2cccc(C(F)(F)F)c2)c(C)c1 [Compound I-115, 2-chloro-N-[2-(2,4-dimethylphenyl)ethyl]-5-[3-(trifluoromethyl)phenoxy]pyridine-4-carbothioamide]
pest or weed control at 500 ppm (Botrytis cinerea): 90 to 100% | pest or weed control at 500 ppm (Sphaerotheca fuliginea): 90 to 100% | chromatographic logP (physchem): 5.42

O=C(NCC(F)(F)c1ccc(C2CCCC2)cc1Cl)c1cc(Cl)ncc1Oc1cccc(C(F)F)c1 [Compound I-124, 2-chloro-N-[2-(2-chloro-4-cyclopentyl-phenyl)-2,2-difluoro-ethyl]-5-[3-(difluoromethyl)phenoxy]pyridine-4-carboxamide]
inhibition at 20 ppm (Pyrenophora teres): 90 to 100% | chromatographic logP (physchem): 5.5

Cc1ccc(CCNC(=O)c2cc(Cl)ncc2Oc2ccc(C(F)(F)F)cc2)c(C)c1 [Compound I-240]
LogP (physchem): 4.77^[a]

O=C(NCC(F)(F)c1ccc(Br)cc1Cl)c1cc(Cl)ncc1Oc1cccc(Cl)c1 [Compound I-241]
LogP (physchem): 4.95^[a]

Cc1ccc(CCNC(=O)c2cc(C)ncc2Oc2cccc(C3CC3)c2)c(C)c1 [Compound I-242]
LogP (physchem): 4.27^[a]

Cc1ccc(CCNC(=O)c2cc(C3CC3)ncc2Oc2cccc(C3CC3)c2F)c(C)c1 [Compound I-243]
LogP (physchem): 5.32^[a]

Cc1ccc(CCNC(=O)c2cc(Cl)ncc2Oc2cc(F)cc(Cl)c2)c(C)c1 [Compound I-244]
LogP (physchem): 4.82^[a]

Cc1ccc(CCNC(=O)c2cc(Cl)nc(Cl)c2Oc2cccc(C(F)(F)F)c2)c(Cl)c1 [Compound I-245]
LogP (physchem): 5.17^[a]

Cc1ccc(C(F)(F)CNC(=O)c2cc(C3CC3)ncc2Oc2cccc(C3CC3)c2F)c(C)c1 [Compound I-246]
LogP (physchem): 5.36^[a]

Cc1ccc(C(F)(F)CNC(=O)c2cc(Cl)nc(Cl)c2Oc2cccc(C(F)(F)F)c2)c(C)c1 [Compound I-247]
LogP (physchem): 5.16^[a]

CSc1cccc(Oc2cnc(Cl)cc2C(=O)NCCc2ccc(C)cc2C)c1 [Compound I-248]
LogP (physchem): 4.76^[a]

O=C(NCC(F)(F)c1ccc(Br)cc1Cl)c1cc(Cl)ncc1Oc1cccc(C(F)F)c1 [Compound I-249]
LogP (physchem): 4.54^[a]

Cc1ccc(CCNC(=O)c2cc(Cl)ncc2Oc2ccc(Cl)c(Cl)c2)c(C)c1 [Compound I-250]
LogP (physchem): 5.08^[a]

COc1cccc(Oc2cnc(Cl)cc2C(=O)NCCc2ccc(C)cc2C)c1 [Compound I-252]
LogP (physchem): 4.42^[a]

O=C(NCC(F)c1ccc(Cl)cc1Cl)c1cc(C2CC2)ncc1Oc1cccc(C2CC2)c1 (centres unmarked) [Compound I-253]
LogP (physchem): 5.42^[a]

Cc1ccc(CCNC(=O)c2cc(Cl)ncc2Oc2ccc(Cl)c(C(F)(F)F)c2)c(C)c1 [Compound I-254]
LogP (physchem): 5.09^[a]

Cc1cccc(Oc2cnc(C)cc2C(=O)NCCc2ccc(C)cc2C)c1 [Compound I-255]
LogP (physchem): 3.86^[a]

Cc1ccc(CCNC(=O)c2cc(Cl)ncc2Oc2cccc(C3CCC3)c2)c(C)c1 [Compound I-257]
LogP (physchem): 5.84^[a]

Cc1ccc(CCNC(=O)c2cc(Cl)ncc2Oc2cccc(-c3ccccn3)c2)c(C)c1 [Compound I-258]
LogP (physchem): 4.16^[a]

CCOc1cccc(Oc2cnc(Cl)cc2C(=O)NCCc2ccc(C)cc2C)c1 [Compound I-259]
LogP (physchem): 4.85^[a]

O=C(NCC(F)(F)c1ccc(Cl)cn1)c1cc(Cl)ncc1Oc1cccc(C(F)(F)F)c1 [Compound I-260]
LogP (physchem): 3.99^[a]

Cc1ccc(CCNC(=O)c2cc(Cl)ncc2Oc2cccc(S(C)(=O)=O)c2)c(C)c1 [Compound I-261]
LogP (physchem): 3.38^[a]

Cc1ccc(CCNC(=O)c2cc(C)ncc2Oc2cccc(C3CC3)c2F)c(C)c1 [Compound I-262]
LogP (physchem): 4.32^[a]

Cc1ccc(CCNC(=O)c2cc(Cl)ncc2Oc2c(F)ccc(C)c2F)c(C)c1 [Compound I-264]
LogP (physchem): 4.76^[a]

O=C(NCC(F)(F)c1ccc(-c2ccncc2Cl)cc1Cl)c1cc(Cl)ncc1Oc1cccc(C(F)(F)F)c1 [Compound I-266]
LogP (physchem): 4.51^[a]

COCCc1ccc(C(F)(F)CNC(=O)c2cc(CCOC)ncc2Oc2cccc(C(F)F)c2)c(Cl)c1 [Compound I-267]
LogP (physchem): 3.74^[a]

Cc1ccc(CCNC(=O)c2cc(Cl)ncc2Oc2ccc(C)c(Cl)c2)c(C)c1 [Compound I-268]
LogP (physchem): 5.23^[a]
